# Test results as given in patent US11484558B2, “Epizootic hemorrhagic disease virus—tel aviv university (EHDV-TAU)—oncolytic virus for treating cancer” (Ramot at Tel-Aviv University Ltd., priority 2017, dated 2022).
# Experiments:
# LNCaP cells = test: Trypan blue exclusion assay of infected LNCaP cells; type: cell-based, human; details: for effect of inhibitor on EHDV-TAU-LNCaP-induced cell death: Q-VD-OPH 20 μM, Necrostatin-1 75 μM, 45 hours
# Protocol: LNCaP cells were infected (+) or not (−) with EHDV-TAU-LNCaP (0.05 PFU/cell, for 45 hours) and treated (+) or not (−) with Q-VD-OPH (20 μM, for 45 hours during infection, or 20 hours during STS treatment), Necrostatin-1 (75 μM, for 45 hours) or staurosporine (STS, 1 μM, for 20 hours; serves as positive control of apoptosis induction). Graph depicts mean±SE (n=3) of the percentage of cell death under the indicated conditions. *p<0.05; **p<0.005.
# LNCaP cells were infected or not with EHDV-TAU-LNCaP (0.05 PFU/cell, for 45 hours) and treated, or not, with IFNα or the indicated EpMs. Graph depicts mean±SE (n=5) of percentage of cell death under the indicated conditions; *p<0.05; ***p<0.0005.
# Trypan blue exclusion assay—2×10^5 LNCaP cells/well in a 12-well plate were infected, or not, under the indicated experimental conditions. For each well, detached and attached cells were collected together and mixed with 0.5% trypan blue at a 1:1 ratio. Cells were classified by trypan blue exclusion by light microscopy. Trypan blue (0.5%) was from Beit Haemek Biological Industries, Israel (cat. #03-102-1B).
# LNCaP-JAK1 cells = test: Immunoblot of NS3 in infected LNCaP-JAK1 cells; details: for effect of treatment on NS3 expression in EHDV-TAU-LNCaP-infected cells: LNCaP-JAK1, Baricitinib 0.5 μM, IFNα 200 U/ml, IFNγ 25 ng/ml, prior to and during infection
molecule,measurement,setting,value
"Nc1ncn([C@H]2C[C@H](O)[C@@H](CO)O2)c(=O)n1 [5AC, 5-Aza-2′-deoxycytidine]",effect on infection / virus-induced death,"LNCaP cells; combination of 5AC and IFNα, compared to IFNα or 5AC alone",reduced infection to a greater and significant degree
CN1C(=O)C(Cc2c[nH]c3ccccc23)NC1=S (stereo not shown) [Necrostatin-1],effect of inhibitor on EHDV-TAU-LNCaP-induced cell death,LNCaP cells,partial reduction
"O=C(O)[C@H](Cc1c[nH]c2ccccc12)N1C(=O)c2ccccc2C1=O [RG108, N-phthalyl-L-tryptophan]",protection from EHDV-TAU-LNCaP-induced cell death,LNCaP cells; RG108 alone,partial protection
same,effect on virus-induced cell death,"LNCaP cells; combination of IFN and RG108, relative to untreated infected cells",reduced it to half
"COC(=O)CC(NC(=O)C(NC(=O)c1ccc2ccccc2n1)C(C)C)C(=O)COc1c(F)cccc1F (stereo not shown) [Q-VD-OPh, Quinolyl-valyl-O-methylaspartyl-[-2,6-difluorophenoxy]-methyl ketone, reference compound]",effect of inhibitor on EHDV-TAU-LNCaP-induced cell death,LNCaP cells,partial reduction
same,"effect on NS3 expression in infected, IL-6-treated cells","LNCaP-JAK1 cells; LNCaP-JAK1, Q-VD-OPh 20 μM, IL-6 5 ng/ml",failed to rescue NS3 expression
"IL-6: Human IL-6 (PeproTech), pleiotropic cytokine",effect on productive EHDV-TAU-LNCaP infection,"LNCaP-JAK1 cells; LNCaP-JAK1, IL-6",reduce productive EHDV-TAU-LNCaP infection
IFNα,effect on EHDV-TAU-LNCaP-induced cell death,LNCaP cells; IFN alone,minimal reduction
same,effect of treatment on NS3 expression in EHDV-TAU-LNCaP-infected cells,LNCaP-JAK1 cells,abolished NS3 expression
"IFNγ: human IFNγ (PeproTech) (protein, UniProt P01579 24-161, looked up) Interferon gamma: QDPYVKEAENLKKYFNAGHSDVADNGTLFLGILKNWKEESDRKIMQSQIVSFYFKLFKNFKDDQSIQKSVETIKEDMNVKFFNSNKKKRDDFEKLTNYSVTDLNVQRKAIHELIQVMAELSPAAKTGKRKRSQMLFRG",effect of treatment on NS3 expression in EHDV-TAU-LNCaP-infected cells,LNCaP-JAK1 cells,abrogated NS3 production
